{"source": "patent US9371319B2", "about": "“Pyrrolopyridineamino derivatives as MPS1 inhibitors” (priority 2011, dated 2016)", "data": [{"biological_target": "T1, full length MPS1 (Homo sapiens, UniProt P33981)", "T1 sequence (P33981 1-857)": "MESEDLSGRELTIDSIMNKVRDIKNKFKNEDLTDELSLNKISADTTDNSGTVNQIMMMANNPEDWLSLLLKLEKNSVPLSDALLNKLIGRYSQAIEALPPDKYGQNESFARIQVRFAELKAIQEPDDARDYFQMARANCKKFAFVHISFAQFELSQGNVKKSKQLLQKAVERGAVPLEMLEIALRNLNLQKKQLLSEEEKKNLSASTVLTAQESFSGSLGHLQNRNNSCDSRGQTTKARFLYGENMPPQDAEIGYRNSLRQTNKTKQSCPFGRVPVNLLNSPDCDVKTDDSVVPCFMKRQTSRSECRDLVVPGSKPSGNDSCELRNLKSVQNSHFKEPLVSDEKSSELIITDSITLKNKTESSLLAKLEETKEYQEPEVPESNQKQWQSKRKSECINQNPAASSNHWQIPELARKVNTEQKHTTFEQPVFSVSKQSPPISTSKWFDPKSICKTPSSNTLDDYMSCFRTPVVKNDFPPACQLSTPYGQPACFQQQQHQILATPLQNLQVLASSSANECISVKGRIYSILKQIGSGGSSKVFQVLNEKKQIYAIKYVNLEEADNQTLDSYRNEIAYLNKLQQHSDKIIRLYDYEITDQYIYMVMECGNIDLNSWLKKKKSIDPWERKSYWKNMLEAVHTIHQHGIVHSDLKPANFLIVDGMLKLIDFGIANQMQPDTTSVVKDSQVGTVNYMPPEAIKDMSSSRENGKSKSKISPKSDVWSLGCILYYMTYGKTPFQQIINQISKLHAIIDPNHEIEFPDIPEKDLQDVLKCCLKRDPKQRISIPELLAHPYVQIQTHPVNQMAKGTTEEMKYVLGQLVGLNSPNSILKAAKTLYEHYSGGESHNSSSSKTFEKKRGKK", "assay": "biochemical", "procedure": "Measurement of Inhibition of MPS1 Kinase\n(5 μM), ATP (10 μM), either DMSO (1% v/v) or the test compound (in the range 0.25 nM-100 μM in 1% DMSO) and assay buffer (50 mM HEPES (pH 7.0), 0.02% NaN3, 0.01% BSA, 0.1 mM Orthovandate, […], 1 μM DTT, Roche protease inhibitor). The reaction was carried out for 60 min at room temperature and stopped by the addition of buffer (10 μl) containing 20 mM EDTA, 0.05% (v/v) Brij-35, in 0.1M HEPES-buffered saline (Free acid, Sigma, UK). The plate was read on a Caliper EZ reader II (Caliper Life Sciences).\nThe % inhibition of the compounds is calculated relative to the means of selected control wells. […] The % inhibitions at each concentration are then fitted to a 4 parameter logistic fit: y=(a+((b−a)/(1+((c/x^d)))) where a=asym min, b=asym max, c=IC50 and d=hill coefficient", "units": {"IC50": "nM"}, "values": [{"smiles": "COc1cc(C(=O)N2CC(OC)C2)ccc1Nc1cc2c(cn1)cc(-c1cnn(C)c1)n2C(=O)OC(C)(C)C", "note": "[Example 12]", "IC50": 7}, {"smiles": "COCCOc1ccc(Nc2cc3[nH]c(-c4cn[nH]c4)cc3cn2)cc1", "note": "[Example 170, N-(4-(2-Methoxyethoxy)phenyl)-2-(1H-pyrazol-4-yl)-1H-pyrrolo[3,2-c]pyridin-6-amine]", "IC50": 9}, {"smiles": "COc1cc(C(=O)N2CC(OC)C2)ccc1Nc1cc2[nH]c(-c3cnn(C)c3)cc2cn1", "note": "[Example 120, (3-Methoxy-4-(2-(1-methyl-1H-pyrazol-4-yl)-1H-pyrrolo[3,2-c]pyridin-6-ylamino)phenyl)(3-methoxyazetidin-1-yl)methanone]", "IC50": 7}, {"smiles": "Cn1cc(-c2[nH]c3cc(Nc4ccccc4Cl)ncc3c2Cl)cn1", "note": "[Example 193, 3-Chloro-N-(2-chlorophenyl)-2-(1-methyl-1H-pyrazol-4-yl)-1H-pyrrolo[3,2-c]pyridin-6-amine]", "IC50": 421}, {"smiles": "Cc1ncc(-c2ccc(Nc3cc4c(cn3)cc(-c3cnco3)n4C(=O)OC(C)(C)C)c(Cl)c2)n1C", "note": "[Example 107]", "IC50": 2}, {"smiles": "CN(C)C(=O)c1ccc(Nc2cc3c(cn2)cc(-c2cnn(C)c2)n3-c2ccccn2)c(Cl)c1", "note": "[Example 94]", "IC50": 78}, {"smiles": "Cc1ccc(-c2ccc(Nc3cc4c(cn3)cc(-c3cnn(C)c3)n4C(=O)OC(C)(C)C)c(Cl)c2)cn1", "note": "[Example 49]", "IC50": 9}, {"smiles": "CN(C)C(=O)c1cc(Cl)c(Nc2cc3[nH]c(-c4cnn(C)c4)cc3cn2)c(Cl)c1", "note": "[Example 121, 3,5-Dichloro-N,N-dimethyl-4-(2-(1-methyl-1H-pyrazol-4-yl)-1H-pyrrolo[3,2-c]pyridin-6-ylamino)benzamide]", "IC50": 91}, {"smiles": "CNC(=O)c1ccc(Nc2cc3[nH]c(-c4cnn(C)c4)cc3cn2)c(OC)c1", "note": "[Example 133, 3-Methoxy-N-methyl-4-(2-(1-methyl-1H-pyrazol-4-yl)-1H-pyrrolo[3,2-c]pyridin-6-ylamino)benzamide]", "IC50": 27}, {"smiles": "CN(C)C(=O)c1ccc(Nc2cc3c(cn2)cc(-c2cnn(C)c2)n3CC2CC2)c(Cl)c1", "note": "[Example 66]", "IC50": 30}, {"smiles": "FC(F)(F)c1ccccc1Nc1cc2[nH]c(-c3cn[nH]c3)cc2cn1", "note": "[Example 164, 2-(1H-Pyrazol-4-yl)-N-(2-(trifluoromethyl)phenyl)-1H-pyrrolo[3,2-c]pyridin-6-amine]", "IC50": 512}, {"smiles": "Cc1ncc(-c2ccc(Nc3cc4[nH]c(-c5cnn(C)c5)cc4cn3)c(Cl)c2)n1C", "note": "[Example 152, N-(2-Chloro-4-(1,2-dimethyl-1H-imidazol-5-yl)phenyl)-2-(1-methyl-1H-pyrazol-4-yl)-1H-pyrrolo[3,2-c]pyridin-6-amine]", "IC50": 5}, {"smiles": "COc1cc(CN2CCCC2)ccc1Nc1cc2c(cn1)cc(-c1cnn(C)c1)n2C(=O)OC(C)(C)C", "note": "[Example 33]", "IC50": 16}, {"smiles": "CN(C)C(=O)c1ccc(Nc2cc3c(cn2)cc(-c2cnn(C)c2)n3CC2CCCC2)c(Cl)c1", "note": "[Example 64, 3-Chloro-4-(1-(cyclopentylmethyl)-2-(1-methyl-1H-pyrazol-4-yl)-1H-pyrrolo[3,2-c]pyridin-6-ylamino)-N,N-dimethylbenzamide]", "IC50": 47}, {"smiles": "Cn1cc(-c2cc3cnc(Nc4ccc(-c5nccn5C)cc4Cl)cc3n2C(=O)OC(C)(C)C)cn1", "note": "[Example 22]", "IC50": 3}, {"smiles": "CNCc1ccc(Nc2cc3[nH]c(-c4cnn(C)c4)cc3cn2)c(OC)c1", "note": "[Example 138, N-(2-methoxy-4-((methylamino)methyl)phenyl)-2-(1-methyl-1H-pyrazol-4-yl)-1H-pyrrolo[3,2-c]pyridin-6-amine]", "IC50": 31}, {"smiles": "CN(C)C(=O)c1ccc(Nc2cc3c(cn2)cc(-c2cnn(C)c2)n3C2CCCC2)c(Cl)c1", "note": "[Example 73]", "IC50": 7}, {"smiles": "COc1ccc(Nc2cc3c(cn2)cc(-c2cn[nH]c2)n3C)cc1OC", "note": "[Example 126, N-(3,4-dimethoxyphenyl)-1-methyl-2-(1H-pyrazol-4-yl)-1H-pyrrolo[3,2-c]pyridin-6-amine]", "IC50": 26}, {"smiles": "CCOC(=O)n1c(-c2cnn(C)c2)cc2cnc(Nc3ccc(-c4cnc(C)n4C)cc3Cl)cc21", "note": "[Example 87]", "IC50": 2}, {"smiles": "Cn1cc(-c2cc3cnc(Nc4cccc(OCC#N)c4)cc3[nH]2)cn1", "note": "[Example 141, 2-(3-(2-(1-Methyl-1H-pyrazol-4-yl)-1H-pyrrolo[3,2-c]pyridin-6-ylamino)phenoxy)acetonitrile]", "IC50": 132}, {"smiles": "Cn1cc(-c2cc3cnc(Nc4ccc(-n5cncn5)cc4Cl)cc3[nH]2)cn1", "note": "[Example 129, N-(2-Chloro-4-(1H-1,2,4-triazol-1-yl)phenyl)-2-(1-methyl-1H-pyrazol-4-yl)-1H-pyrrolo[3,2-c]pyridin-6-amine]", "IC50": 55}, {"smiles": "CN(C)C(=O)c1ccc(Nc2cc3c(cn2)cc(-c2cnn(C)c2)n3Cc2ccc(F)cc2)c(Cl)c1", "note": "[Example 70]", "IC50": 38}, {"smiles": "Cn1cc(-c2[nH]c3cc(Nc4ccc(S(C)(=O)=O)cc4Cl)ncc3c2Cl)cn1", "note": "[Example 197, 3-Chloro-N-(2-chloro-4-(methylsulfonyl)phenyl)-2-(1-methyl-1H-pyrazol-4-yl)-1H-pyrrolo[3,2-c]pyridin-6-amine]", "IC50": 69}, {"smiles": "Cn1cc(-c2cc3cnc(Nc4ccc(C(=O)N5CCCC5)cc4Cl)cc3n2C(=O)OC(C)(C)C)cn1", "note": "[Example 40]", "IC50": 4}, {"smiles": "CC(C)OC(=O)n1c(-c2cnn(C)c2)cc2cnc(Nc3cc(-c4cnn(C)c4)ccc3Cl)cc21", "note": "[Example 89]", "IC50": 287}, {"smiles": "CC(C)OC(=O)n1c(-c2cnn(C)c2)cc2cnc(Nc3ccc(-c4cncn4C)cc3Cl)cc21", "note": "[Example 79]", "IC50": 3}, {"smiles": "FC(F)(F)c1ccc(Nc2cc3[nH]c(-c4cn[nH]c4)cc3cn2)cc1", "note": "[Example 161, 2-(1H-Pyrazol-4-yl)-N-(4-(trifluoromethyl)phenyl)-1H-pyrrolo[3,2-c]pyridin-6-amine]", "IC50": 1060}, {"smiles": "COc1ncccc1Nc1cc2[nH]c(-c3cnn(C)c3)cc2cn1", "note": "[Example 112, N-(2-Methoxypyridin-3-yl)-2-(1-methyl-1H-pyrazol-4-yl)-1H-pyrrolo[3,2-c]pyridin-6-amine]", "IC50": 21}, {"smiles": "Cc1cc(Cn2c(-c3cnn(C)c3)cc3cnc(Nc4ccc(C(=O)N(C)C)cc4Cl)cc32)no1", "note": "[Example 90]", "IC50": 343}, {"smiles": "CN(C)C(=O)c1ccc(Nc2cc3[nH]c(-c4cnco4)cc3cn2)c(Cl)c1", "note": "[Example 180, 3-Chloro-N,N-dimethyl-4-(2-(oxazol-5-yl)-1H-pyrrolo[3,2-c]pyridin-6-ylamino)benzamide]", "IC50": 5}, {"smiles": "COc1cc(C(=O)N2CCS(=O)(=O)CC2)ccc1Nc1cc2[nH]c(-c3cnn(C)c3)cc2cn1", "note": "[Example 115, (3-Methoxy-4-(2-(1-methyl-1H-pyrazol-4-yl)-1H-pyrrolo[3,2-c]pyridin-6-ylamino)phenyl)(thiomorpholino)methanone-S,S-dioxide]", "IC50": 7}, {"smiles": "Cc1ncc(-c2ccc(Nc3cc4c(cn3)cc(-c3cnco3)n4C(=O)OC(C)C)c(Cl)c2)n1C", "note": "[Example 106]", "IC50": 2}, {"smiles": "CC(C)n1c(-c2cnn(C)c2)cc2cnc(Nc3ccc(C(=O)N(C)C)cc3Cl)cc21", "note": "[Example 74]", "IC50": 50}, {"smiles": "COc1cc(CN(C)C(=O)OC(C)(C)C)ccc1Nc1cc2c(cn1)cc(-c1cnn(C)c1)n2C(=O)OC(C)(C)C", "note": "[Example 34]", "IC50": 111}, {"smiles": "Cc1ncc(-c2ccc(Nc3cc4c(cn3)cc(-c3cnn(C)c3)n4C(=O)OC(C)C)c(Cl)c2)n1C", "note": "[Example 83]", "IC50": 2}, {"smiles": "O=S1(=O)CCN(Cc2ccc(Nc3cc4[nH]c(-c5cn[nH]c5)cc4cn3)cc2)CC1", "note": "[Example 175, 2-(1H-Pyrazol-4-yl)-N-(4-(thiomorpholinomethyl)phenyl)-1H-pyrrolo[3,2-c]pyridin-6-amine-S,S-dioxide]", "IC50": 4}, {"smiles": "CS(=O)(=O)n1c(-c2cn[nH]c2)cc2cnc(Nc3ccc(F)cc3)cc21", "note": "[Example 187, N-(4-fluorophenyl)-1-(methylsulfonyl)-2-(1H-pyrazol-4-yl)-1H-pyrrolo[3,2-c]pyridin-6-amine]", "IC50": 6430}, {"smiles": "CN(C)C(=O)c1ccc(Nc2cc3c(cn2)cc(-c2cnn(C)c2)n3C(=O)OC2CCC2)c(Cl)c1", "note": "[Example 81]", "IC50": 3}, {"smiles": "Cn1cc(-c2ccc(Nc3cc4c(cn3)cc(-c3cnn(C)c3)n4C(=O)OC3CCCC3)c(Cl)c2)cn1", "note": "[Example 75]", "IC50": 12}, {"smiles": "CNC(=O)c1ccc(Nc2cc3[nH]c(-c4cnn(C)c4)cc3cn2)c(Cl)c1", "note": "[Example 134, 3-Chloro-N-methyl-4-(2-(1-methyl-1H-pyrazol-4-yl)-1H-pyrrolo[3,2-c]pyridin-6-ylamino)benzamide]", "IC50": 20}]}]}
